# Tested on: RhoA
# Assay: thrombin induced RhoA activation in HUVEC culture (active RhoA pull-down, Western blot)
# Type: cell-based, human
# Details: 5 U/ml thrombin alone, 5 min
# Experimental: The biological effect of the compounds was established in a model using thrombin induced RhoA activation in human umbilical vein endothelial cell (HUVEC) culture.
# HUVEC are grown to confluence under standard conditions. Before induction of Rho activity HUVEC were starved for 4 h by using IMDM (Gibco) without growth factor and serum supplements. After the starvation period, 5 U/ml Thrombin (Calbiochem) or 5 U thrombin plus 50 μg/ml of test compound was added to the starvation medium for 1, 5 and 10 min. Active RhoA was isolated using Rho Assay Reagent from Upstate according to manufactures instructions. Isolates were separated on a 15% polyacrylamide gel and blotted on Nitrocellulose-Membrane (Bio-Rad). RhoA was detected by using Anti-Rho (-A, -B, -C), clone55 from Upstate (1:500).
substance,measurement,value
thrombin,Relative RhoA stimulation compared to unstimulated control,5.6

# — patent US7884074B2, “Compounds and methods for prevention and/or treatment of inflammation using the same” (Ikaria Development Subsidiary Two, LLC, priority 2008, dated 2011)
